The target in one experiment is T1, human recombinant HDAC6 (Homo sapiens, UniProt Q9UBN7).
T1 construct: purchased Calbiochem 382180
T1 sequence (Q9UBN7 1-1215): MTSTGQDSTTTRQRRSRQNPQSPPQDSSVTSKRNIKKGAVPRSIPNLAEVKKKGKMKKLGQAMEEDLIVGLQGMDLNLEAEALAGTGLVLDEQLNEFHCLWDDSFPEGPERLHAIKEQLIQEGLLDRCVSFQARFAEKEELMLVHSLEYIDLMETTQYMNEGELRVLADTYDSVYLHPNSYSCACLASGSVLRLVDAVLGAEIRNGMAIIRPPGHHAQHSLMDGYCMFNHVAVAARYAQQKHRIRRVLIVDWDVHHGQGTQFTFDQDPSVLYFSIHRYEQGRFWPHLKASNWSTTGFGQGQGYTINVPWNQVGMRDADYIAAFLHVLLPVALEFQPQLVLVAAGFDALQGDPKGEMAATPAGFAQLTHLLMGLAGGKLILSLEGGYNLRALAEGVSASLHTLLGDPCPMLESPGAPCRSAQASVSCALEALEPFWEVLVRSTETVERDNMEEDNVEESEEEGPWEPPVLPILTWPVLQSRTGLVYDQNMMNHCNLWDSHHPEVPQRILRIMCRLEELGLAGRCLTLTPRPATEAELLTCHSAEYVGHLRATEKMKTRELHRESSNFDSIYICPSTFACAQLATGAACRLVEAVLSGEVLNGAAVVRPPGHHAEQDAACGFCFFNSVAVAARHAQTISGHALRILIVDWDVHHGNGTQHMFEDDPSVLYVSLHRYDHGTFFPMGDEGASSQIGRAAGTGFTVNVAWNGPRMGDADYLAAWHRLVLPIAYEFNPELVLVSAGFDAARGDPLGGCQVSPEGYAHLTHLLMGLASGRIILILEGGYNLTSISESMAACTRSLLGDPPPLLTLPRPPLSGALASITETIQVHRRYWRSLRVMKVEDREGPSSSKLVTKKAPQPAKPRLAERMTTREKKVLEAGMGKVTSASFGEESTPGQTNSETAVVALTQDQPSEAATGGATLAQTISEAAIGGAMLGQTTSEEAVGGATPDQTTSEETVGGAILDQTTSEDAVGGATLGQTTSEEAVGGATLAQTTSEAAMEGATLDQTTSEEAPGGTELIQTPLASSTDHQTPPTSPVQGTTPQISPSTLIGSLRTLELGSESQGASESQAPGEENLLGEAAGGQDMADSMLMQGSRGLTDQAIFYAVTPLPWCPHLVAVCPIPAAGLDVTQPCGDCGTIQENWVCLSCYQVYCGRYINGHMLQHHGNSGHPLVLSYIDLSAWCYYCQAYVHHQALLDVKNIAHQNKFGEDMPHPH
Description: HDAC6 enzyme activity inhibition (fluorimetric, in vitro). Format: biochemical. The following applies: samples at 0.1, 1, 10, 100 and 1000 nM. As for the experimental part: (§1) A HDAC enzyme inhibitory capacity of a test material was measured by using HDAC1 Fluorimetric Drug Discovery Assay Kit (Enzolifesciences: BML-AK511) and HDAC6 human recombinant (Calbiochem: 382180). For a HDAC1 assay, samples were treated at a concentration of 100, 1000 and 10000 nM. For a HDAC6 assay, samples were treated at a concentration of 0.1, 1, 10, 100 and 1000 nM.
(§2) For the test on the HDAC1 enzyme activity, human recombinant HDAC1 (BML-SE456) was used as a zymogen and Fluor de Lys®-SIRT1 (BNL-KI177) was used as a substrate. A 5-fold dilution of the compound was divided into a 96-well plate, after which 0.3 μg of the enzyme and […] of the substrate were inserted into each well and subjected to reaction at 37° C. for 60 minutes, such that Fluor de Lys® Developer II (BML-K1176) was inserted thereinto and subjected to reaction for 30 minutes and finished. After that, a fluorescence value (Ex 360, Em 460) was measured with a multi-plate reader (FlexStation 3, Molecular Device). An experiment on HDAC6 enzyme was conducted in accordance with the same protocol as in the HDAC1 enzyme activity test method by using human recombinant HDAC6 (382180) of Calbiochem Inc. For final result values, each IC50 value was calculated with GraphPad Prism 4.0 program.

Another experiment addresses T2, human recombinant HDAC1 (Homo sapiens, UniProt Q13547).
T2 construct: purchased Enzolifesciences BML-SE456
Description: HDAC1 enzyme activity inhibition (HDAC1 Fluorimetric Drug Discovery Assay Kit, in vitro). As to conditions: samples at 100, 1000 and 10000 nM. It is filed as biochemical. Here is the method: as §1, §2

SMILES strings stand for the structures. Bounds are passed on as bounds.

Consider 19 compounds from patent publication US20260125370A1, “SULFOXIMINE COMPOUNDS AS HISTONE DEACETYLASE 6 INHIBITOR, AND PHARMACEUTICAL COMPOSITION COMPRISING THE SAME” (CHONG KUN DANG PHARMACEUTICAL CORP., priority 2022, published 2026).

The IC50 is the midpoint of a concentration-inhibition curve.

T2 sequence (Q13547 whole entry): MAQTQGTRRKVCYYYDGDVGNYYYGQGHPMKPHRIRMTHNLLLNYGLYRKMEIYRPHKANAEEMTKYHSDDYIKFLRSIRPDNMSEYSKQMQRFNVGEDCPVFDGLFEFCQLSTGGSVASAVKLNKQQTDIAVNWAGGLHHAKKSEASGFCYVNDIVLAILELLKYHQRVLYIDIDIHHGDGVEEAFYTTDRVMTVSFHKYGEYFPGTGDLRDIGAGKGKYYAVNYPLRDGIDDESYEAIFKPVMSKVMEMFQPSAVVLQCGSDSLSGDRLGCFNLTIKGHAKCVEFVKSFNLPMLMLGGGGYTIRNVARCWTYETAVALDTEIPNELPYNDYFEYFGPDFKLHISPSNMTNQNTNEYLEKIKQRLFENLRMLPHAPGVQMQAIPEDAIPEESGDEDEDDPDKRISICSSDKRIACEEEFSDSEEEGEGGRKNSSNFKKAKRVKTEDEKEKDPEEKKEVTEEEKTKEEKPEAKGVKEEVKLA

Turning to `N=S1(=O)CCN(C(=O)N(Cc2ccc(-c3nnc(C(F)F)o3)cc2F)c2ccccc2)CC1` [Compound 1, N-(4-(5-(difluoromethyl)-1,3,4-oxadiazol-2-yl)-2-fluorobenzyl)-1-imino-N-phenylthiomorpholin-4-carboxamide 1-oxide], the IC50 is 49.4 nM on human recombinant HDAC6 and > 10000 nM on human recombinant HDAC1.

In the case of `O=C(N1CCS(=O)(=NC(=O)C(F)(F)F)CC1)N(Cc1ccc(-c2nnc(C(F)F)o2)cn1)c1ccccc1` [Compound 2, N-((5-(5-(difluoromethyl)-1,3,4-oxadiazol-2-yl)pyridin-2-yl)methyl)-N-phenyl-1-((2,2,2-trifluoroacetyl)imino)thiomorpholin-4-carboxamide 1-oxide], the IC50 on human recombinant HDAC6 was 168 nM; at human recombinant HDAC1, > 10000 nM.

For `N=S1(=O)CCN(C(=O)N(Cc2ccc(-c3nnc(C(F)F)o3)cn2)c2ccccc2)CC1` [Compound 3, N-((5-(5-(difluoromethyl)-1,3,4-oxadiazol-2-yl)pyridin-2-yl)methyl)-1-imino-N-phenylthiomorpholin-4-carboxamide 1-oxide], the 50% inhibitory concentration (IC50) on human recombinant HDAC6 was 151 nM; on human recombinant HDAC1, > 10000 nM.

For `O=C(N=S1(=O)CCN(C(=O)N(Cc2ccc(-c3nnc(C(F)F)o3)cc2F)c2ccccc2)CC1)OCc1ccccc1` [Compound 4, Benzyl (4-((4-(5-(difluoromethyl)-1,3,4-oxadiazol-2-yl)-2-fluorobenzyl)(phenyl)carbamoyl)-1-oxidothiomorpholin-1-ylidene)carbamate], the IC50 on human recombinant HDAC6 was 390 nM; on human recombinant HDAC1, > 10000 nM.

In the case of `O=C(N=S1(=O)CCN(C(=O)N(Cc2ccc(-c3nnc(C(F)F)o3)cn2)c2ccccc2)CC1)OCc1ccccc1` [Compound 5, Benzyl (4-(((5-(5-(difluoromethyl)-1,3,4-oxadiazol-2-yl)pyridin-2-yl)methyl)(phenyl)carbamoyl)-1-oxidothiomorpholin-1-ylidene)carbamate], the figures for the IC50 on human recombinant HDAC6 and at human recombinant HDAC1 were 91.4 nM and > 10000 nM, respectively.

For `N=S1(=O)CCN(C(=O)N(Cc2ccc(-c3nnc(C(F)F)o3)cc2F)c2ccc(F)c(F)c2)CC1` [Compound 6, N-(4-(5-(difluoromethyl)-1,3,4-oxadiazol-2-yl)-2-fluorobenzyl)-N-(3,4-difluorophenyl)-1-iminothiomorpholin-4-carboxamide 1-oxide], the IC50 at human recombinant HDAC6 is 50 nM; on human recombinant HDAC1, > 10000 nM.

As to `N=S1(=O)CCN(C(=O)N(Cc2ccc(-c3nnc(C(F)F)o3)cn2)c2ccc(F)c(F)c2)CC1` [Compound 7, N-((5-(5-(difluoromethyl)-1,3,4-oxadiazol-2-yl)pyridin-2-yl)methyl)-N-(3,4-difluorophenyl)-1-iminothiomorpholin-4-carboxamide 1-oxide], the IC50 was 40.9 nM on human recombinant HDAC6 and > 10000 nM on human recombinant HDAC1.

`N=S1(=O)CCC(C(=O)N(Cc2ccc(-c3nnc(C(F)F)o3)cc2F)c2ccccc2)CC1` (stereo not shown) [Compound 8, N-(4-(5-(difluoromethyl)-1,3,4-oxadiazol-2-yl)-2-fluorobenzyl)-1-imino-N-phenyltetrahydro-2H-thiopyran-4-carboxamide 1-oxide]: the IC50 was 194 nM on human recombinant HDAC6 and > 10000 nM on human recombinant HDAC1.

As to `N=S1(=O)CCN(C(=O)N(Cc2ccc(-c3nnc(C(F)(F)F)o3)cn2)c2ccccc2)CC1` [Compound 9, 1-imino-N-phenyl-N-((5-(5-(trifluoromethyl)-1,3,4-oxadiazol-2-yl)pyridin-2-yl)methyl)thiomorpholine-4-carboxamide 1-oxide], the IC50 was 280 nM on human recombinant HDAC6 and > 10000 nM on human recombinant HDAC1.

Take `Cn1ccc2cc(N(Cc3ccc(-c4nnc(C(F)F)o4)cc3F)C(=O)N3CCS(=N)(=O)CC3)ccc21` [Compound 10, N-(4-(5-(difluoromethyl)-1,3,4-oxadiazol-2-yl)-2-fluorobenzyl)-1-imino-N-(1-methyl-1H-indol-5-yl)thiomorpholin-4-carboxamide 1-oxide]: the figures for the IC50 on human recombinant HDAC6 and at human recombinant HDAC1 were 108 nM and > 10000 nM, respectively.

For the compound `CS(=N)(=O)c1ccc(N(Cc2ccc(-c3nnc(C(F)F)o3)cc2F)C(=O)N2CCS(=N)(=O)CC2)cc1` (stereo not shown) [Compound 11, N-(4-(5-(difluoromethyl)-1,3,4-oxadiazol-2-yl)-2-fluorobenzyl)-1-imino-N-(4-(S-methylsulfonimidoyl)phenyl)thiomorpholin-4-carboxamide 1-oxide], the IC50 at human recombinant HDAC6 was 1420 nM; on human recombinant HDAC1 it was > 10000 nM.

As to `N=S1(=O)CCN(C(=O)N(Cc2ccc(-c3nnc(C(F)F)o3)cc2F)c2cccs2)CC1` [Compound 12, N-(4-(5-(difluoromethyl)-1,3,4-oxadiazol-2-yl)-2-fluorobenzyl)-1-imino-N-(thiophen-2-yl)thiomorpholin-4-carboxamide 1-oxide], the IC50 at human recombinant HDAC6 was 62.6 nM; on human recombinant HDAC1, > 10000 nM.

Take `N=S1(=O)CCN(C(=O)N(Cc2ccc(-c3nnc(C(F)F)o3)cc2F)c2cccc(F)c2)CC1` [Compound 13, N-(4-(5-(difluoromethyl)-1,3,4-oxadiazol-2-yl)-2-fluorobenzyl)-N-(3-fluorophenyl)-1-iminothiomorpholin-4-carboxamide 1-oxide]: the figures for the IC50 on human recombinant HDAC6 and at human recombinant HDAC1 were 44 nM and > 10000 nM, respectively.

Turning to `Cn1ccc2cc(N(Cc3ccc(-c4nnc(C(F)F)o4)cn3)C(=O)N3CCS(=N)(=O)CC3)ccc21` [Compound 14, N-((5-(5-(difluoromethyl)-1,3,4-oxadiazol-2-yl)pyridin-2-yl)methyl)-1-imino-N-(1-methyl-1H-indol-5-yl)thiomorpholin-4-carboxamide 1-oxide], the IC50 is 94.4 nM on human recombinant HDAC6 and > 10000 nM at human recombinant HDAC1.

For `CS(=N)(=O)c1ccc(N(Cc2ccc(-c3nnc(C(F)F)o3)cn2)C(=O)N2CCS(=N)(=O)CC2)cc1` (stereo not shown) [Compound 15, N-((5-(5-(difluoromethyl)-1,3,4-oxadiazol-2-yl)pyridin-2-yl)methyl)-1-imino-N-(4-(S-methylsulfonimidoyl)phenyl)thiomorpholin-4-carboxamide 1-oxide], the IC50 on human recombinant HDAC6 is 1350 nM; on human recombinant HDAC1 it was > 10000 nM.

As to `N=S1(=O)CCN(C(=O)N(Cc2ccc(-c3nnc(C(F)F)o3)cn2)c2cccs2)CC1` [Compound 16, N-((5-(5-(difluoromethyl)-1,3,4-oxadiazol-2-yl)pyridin-2-yl)methyl)-1-imino-N-(thiophen-2-yl)thiomorpholin-4-carboxamide 1-oxide], the results for the IC50 at human recombinant HDAC6 and on human recombinant HDAC1 were 42.6 nM and > 10000 nM, respectively.

`N=S1(=O)CCN(C(=O)N(Cc2ccc(-c3nnc(C(F)F)o3)cn2)c2cccc(F)c2)CC1` [Compound 17]: the half-inhibitory concentration (IC50) at human recombinant HDAC6 is 27.2 nM; at human recombinant HDAC1, > 10000 nM.

Turning to `N=S1(=O)CCN(S(=O)(=O)N(Cc2ccc(-c3nnc(C(F)F)o3)cc2F)c2ccccc2)CC1` [Compound 18, N-(4-(5-(difluoromethyl)-1,3,4-oxadiazol-2-yl)-2-fluorobenzyl)-1-imino-N-phenylthiomorpholin-4-sulfonamide 1-oxide], the IC50 is 32.6 nM at human recombinant HDAC6 and > 10000 nM at human recombinant HDAC1.

Take `N=S1(=O)CC(N2C[C@@H]3C[C@H]2CN3c2c(N(Cc3ncc(-c4nnc(C(F)F)o4)cc3F)c3ccccc3)c(=O)c2=O)C1` (stereo partly drawn) [Compound 88, 3-[N-[[5-[5-(difluoromethyl)-1.3.4-oxadiazol-2-yl]-3-fluoro-2-pyridyl]methyl]anilino]-4-[(1S,4S)-5-(1-imino-1-oxo-thiethan-3-yl)-2,5-diazabicyclo[2.2.1]heptan-2-yl]cyclobut-3-en-1,2-dione]: the IC50 at human recombinant HDAC1 was > 10000 nM.
